Reference: patent US20250230155A1 (Vanderbilt University, priority 2021, published 2025)

Target: T1, human mAChR M4 (Homo sapiens, UniProt P08173)
T1 construct: expressed in transfected cells
T1 sequence (P08173 1-479): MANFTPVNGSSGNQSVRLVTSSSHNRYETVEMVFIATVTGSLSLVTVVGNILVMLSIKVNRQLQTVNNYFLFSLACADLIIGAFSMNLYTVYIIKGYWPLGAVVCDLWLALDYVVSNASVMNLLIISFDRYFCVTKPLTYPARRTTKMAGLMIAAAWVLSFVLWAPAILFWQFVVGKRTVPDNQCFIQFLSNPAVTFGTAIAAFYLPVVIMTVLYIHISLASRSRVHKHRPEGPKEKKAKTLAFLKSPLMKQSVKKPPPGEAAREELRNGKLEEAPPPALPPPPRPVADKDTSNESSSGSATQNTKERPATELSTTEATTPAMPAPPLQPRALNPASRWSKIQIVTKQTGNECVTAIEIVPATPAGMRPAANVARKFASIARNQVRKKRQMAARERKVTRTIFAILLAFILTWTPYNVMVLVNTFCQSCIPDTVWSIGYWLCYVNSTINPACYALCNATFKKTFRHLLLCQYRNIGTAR
Assay: mAChR M4 cell-based functional assay (calcium mobilization, CHO-K1 hM4-Gqi5 cells)
Details: for Emax at 30 µM: CHO-K1, % ACh maximum at 30 μM, human M4; for EC50: positive allosteric modulator activity, increase in the EC20 acetylcholine response, CHO-K1 hM4-Gqi5 cells, read-out: Human M4 EC50
Summary of the method: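 CHO-K1 cells stably expressing human M4 with chimeric Gqi5, loaded with Fluo-4 AM; compounds given as 11-point 1:3 curves and calcium flux read on FDSS at 1 Hz. Acetylcholine EC20 added at 144 s, EC80 at 230 s; agonist, PAM (EC20 potentiation) and antagonist (EC80 inhibition) EC50/Emax from four-parameter fits.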

Emax at 30 µM [%]	EC50 [nM]	Structure (SMILES)	Emax (CHO-K1) [%]
84	127	Cc1cc(C#N)nnc1N1CCc2ncc(Oc3cc(F)ccc3F)cc2C1 [Example 357, 6-(3-(2,5-difluorophenoxy)-7,8-dihydro-1,6-naphthyridin-6(5H)-yl)-5-methylpyridazine-3-carbonitrile]	
82	320	Cc1ccc(Oc2cnc3c(c2)CN(c2nnc(C#N)c(C)c2C)CC3)c(F)c1 [Example 358, 6-(3-(2-fluoro-4-methylphenoxy)-7,8-dihydro-1,6-naphthyridin-6(5H)-yl)-4,5-dimethylpyridazine-3-carbonitrile]	
120	472	Cc1cc(C#N)cnc1N1CCc2ncc(N3CCC(C(F)(F)F)n4nccc43)cc2C1 (stereo not shown) [Example 359, 5-methyl-6-(3-(7-(trifluoromethyl)-6,7-dihydropyrazolo[1,5-a]pyrimidin-4(5H)-yl)-7,8-dihydro-1,6-naphthyridin-6(5H)-yl)nicotinonitrile]	
129	88	Cc1cc(C#N)nnc1N1CCc2ncc(N3CCCn4nccc43)cc2C1 [Example 360, 6-(3-(6,7-dihydropyrazolo[1,5-a]pyrimidin-4(5H)-yl)-7,8-dihydro-1,6-naphthyridin-6(5H)-yl)-5-methylpyridazine-3-carbonitrile]	
115	786	Cc1cc(C#N)nnc1N1CCc2ncc(-c3cnn(C4CC4)c3)cc2C1 [Example 361, 6-(3-(1-cyclopropyl-1H-pyrazol-4-yl)-7,8-dihydro-1,6-naphthyridin-6(5H)-yl)-5-methylpyridazine-3-carbonitrile]	
96	76	Cc1cc(C#N)cnc1N1CCc2ncc(N3CCCc4ncccc43)cc2C1 [Example 362, 6-(3-(3,4-dihydro-1,5-naphthyridin-1(2H)-yl)-7,8-dihydro-1,6-naphthyridin-6(5H)-yl)-5-methylnicotinonitrile]	
90	148	Cc1cc2n(n1)CCCN2c1cnc2c(c1)CN(c1nnc(C#N)c(C)c1C)CC2 [Example 363, 4,5-dimethyl-6-(3-(2-methyl-6,7-dihydropyrazolo[1,5-a]pyrimidin-4(5H)-yl)-7,8-dihydro-1,6-naphthyridin-6(5H)-yl)pyridazine-3-carbonitrile]	
98	321	Cc1c(C#N)nnc(N2CCc3ncc(N4CCC(C)n5nccc54)cc3C2)c1C (stereo not shown) [Example 364, 4,5-dimethyl-6-(3-(7-methyl-6,7-dihydropyrazolo[1,5-a]pyrimidin-4(5H)-yl)-7,8-dihydro-1,6-naphthyridin-6(5H)-yl)pyridazine-3-carbonitrile]	
89	358	Cc1cc(C#N)cnc1N1CCc2ncc(Cc3ccccc3F)cc2C1 [Example 365, 6-(3-(2-fluorobenzyl)-7,8-dihydro-1,6-naphthyridin-6(5H)-yl)-5-methylnicotinonitrile]	
96	305	Cc1cc(C#N)cnc1N1Cc2cc(C(F)(F)F)cnc2CC1C (stereo not shown) [Example 366, 5-methyl-6-(7-methyl-3-(trifluoromethyl)-7,8-dihydro-1,6-naphthyridin-6(5H)-yl)nicotinonitrile]	
89	209	Cc1c(C#N)nnc(N2Cc3cc(C(F)(F)F)cnc3CC2C)c1C (stereo not shown) [Example 367, 4,5-dimethyl-6-(7-methyl-3-(trifluoromethyl)-7,8-dihydro-1,6-naphthyridin-6(5H)-yl)pyridazine-3-carbonitrile]	
94	1700	Cc1ccc(F)c(Oc2cnc3c(c2)CN(c2ncc(C#N)cc2C)CC3)c1 [Example 368, 6-(3-(2-fluoro-5-methylphenoxy)-7,8-dihydro-1,6-naphthyridin-6(5H)-yl)-5-methylnicotinonitrile]	
63	424	Cc1c(C#N)nnc(N2CCc3ncc(Cc4ccccc4F)cc3C2)c1C [Example 369, 6-(3-(2-fluorobenzyl)-7,8-dihydro-1,6-naphthyridin-6(5H)-yl)-4,5-dimethylpyridazine-3-carbonitrile]	
82	81	Cc1cc(C#N)cnc1N1CCc2ncc(N3CCOC(C)(C)C3)cc2C1 [Example 370, 6-(3-(2,2-dimethylmorpholino)-7,8-dihydro-1,6-naphthyridin-6(5H)-yl)-5-methylnicotinonitrile]	
75	4350	COc1nc(N2CCc3ncc(C(F)(F)F)cc3C2)c(C)cc1C#N [Example 371, 2-methoxy-5-methyl-6-(3-(trifluoromethyl)-7,8-dihydro-1,6-naphthyridin-6(5H)-yl)nicotinonitrile]	
55	5800	Cc1cc(C#N)c(-c2cccn2C)nc1N1CCc2ncc(C(F)(F)F)cc2C1 [Example 372, 5-methyl-2-(1-methyl-1H-pyrrol-2-yl)-6-(3-(trifluoromethyl)-7,8-dihydro-1,6-naphthyridin-6(5H)-yl)nicotinonitrile]	
64	1740	CCOc1nc(N2CCc3ncc(C(F)(F)F)cc3C2)c(C)cc1C#N [Example 373, 2-ethoxy-5-methyl-6-(3-(trifluoromethyl)-7,8-dihydro-1,6-naphthyridin-6(5H)-yl)nicotinonitrile]	
96	248	Cc1c(C#N)nnc(N2CCc3ncc(N4CC(C)Cn5nccc54)cc3C2)c1C (stereo not shown) [Example 374, 4,5-dimethyl-6-(3-(6-methyl-6,7-dihydropyrazolo[1,5-a]pyrimidin-4(5H)-yl)-7,8-dihydro-1,6-naphthyridin-6(5H)-yl)pyridazine-3-carbonitrile]	
85	1320	Cc1cc(C#N)cnc1N1CCc2ncc(N3CCO[C@H](c4ccccc4)C3)cc2C1 [Example 375, (R)-5-methyl-6-(3-(2-phenylmorpholino)-7,8-dihydro-1,6-naphthyridin-6(5H)-yl)nicotinonitrile]	
90	1380	Cc1c(C#N)nnc(N2CCc3ncc(N4CCO[C@H](c5ccccc5)C4)cc3C2)c1C [Example 376, (R)-4,5-dimethyl-6-(3-(2-phenylmorpholino)-7,8-dihydro-1,6-naphthyridin-6(5H)-yl)pyridazine-3-carbonitrile]	
62	4310	Cc1cc(C#N)cnc1N1CCc2ncc(N3CCO[C@@H](c4ccccc4)C3)cc2C1 [Example 378, (S)-5-methyl-6-(3-(2-phenylmorpholino)-7,8-dihydro-1,6-naphthyridin-6(5H)-yl)nicotinonitrile]	
47	3600	Cc1c(C#N)nnc(N2CCc3ncc(N4CCO[C@@H](c5ccccc5)C4)cc3C2)c1C [Example 379, (S)-4,5-dimethyl-6-(3-(2-phenylmorpholino)-7,8-dihydro-1,6-naphthyridin-6(5H)-yl)pyridazine-3-carbonitrile]	
63	2150	Cc1c(C#N)nnc(N2CCc3ncc(N4CCOC(c5ccccn5)C4)cc3C2)c1C (stereo not shown) [Example 380, 4,5-dimethyl-6-(3-(2-(pyridin-2-yl)morpholino)-7,8-dihydro-1,6-naphthyridin-6(5H)-yl)pyridazine-3-carbonitrile]	
98	384	Cc1cc(C#N)nnc1N1CCc2ncc(N3CC(C)Cn4nccc43)cc2C1 (stereo not shown) [Example 381, 5-methyl-6-(3-(6-methyl-6,7-dihydropyrazolo[1,5-a]pyrimidin-4(5H)-yl)-7,8-dihydro-1,6-naphthyridin-6(5H)-yl)pyridazine-3-carbonitrile]	
98	74	Cc1cc2n(n1)CCCN2c1cnc2c(c1)CN(c1nnc(C#N)cc1C)CC2 [Example 382, 5-methyl-6-(3-(2-methyl-6,7-dihydropyrazolo[1,5-a]pyrimidin-4(5H)-yl)-7,8-dihydro-1,6-naphthyridin-6(5H)-yl)pyridazine-3-carbonitrile]	
97	171	Cc1cc(C#N)nnc1N1CCc2ncc(N3CCC(C)n4nccc43)cc2C1 (stereo not shown) [Example 383, 5-methyl-6-(3-(7-methyl-6,7-dihydropyrazolo[1,5-a]pyrimidin-4(5H)-yl)-7,8-dihydro-1,6-naphthyridin-6(5H)-yl)pyridazine-3-carbonitrile]	
100	185	Cc1cc(C#N)cnc1N1CCc2ncc(N3CC(C)Cn4nccc43)cc2C1 (stereo not shown) [Example 384, 5-methyl-6-(3-(6-methyl-6,7-dihydropyrazolo[1,5-a]pyrimidin-4(5H)-yl)-7,8-dihydro-1,6-naphthyridin-6(5H)-yl)nicotinonitrile]	
103	40	Cc1cc2n(n1)CCCN2c1cnc2c(c1)CN(c1ncc(C#N)cc1C)CC2 [Example 385, 5-methyl-6-(3-(2-methyl-6,7-dihydropyrazolo[1,5-a]pyrimidin-4(5H)-yl)-7,8-dihydro-1,6-naphthyridin-6(5H)-yl)nicotinonitrile]	

Structure (SMILES)	Emax at 30 µM [%]	EC50 [nM]	Emax (CHO-K1) [%]
Cc1cc(C#N)cnc1N1CCc2nc(C)c(N3CCOC(C)(C)C3)cc2C1 [Example 377, 6-(3-(2,2-dimethylmorpholino)-2-methyl-7,8-dihydro-1,6-naphthyridin-6(5H)-yl)-5-methylnicotinonitrile]		760	76
